Assays:
Assay type in all cases: functional
[1] = test system: COLO 205; assay: Cytotoxicity against human COLO205 cells assessed as cell growth at 0.01 uM after 48 hrs by SRB assay relative to control; conditions: COLO 205, 48 h, read-out: Activity
[2] = test system: UACC-62; assay: Cytotoxicity against human UACC62 cells assessed as cell growth at 0.01 uM after 48 hrs by SRB assay relative to control; conditions: UACC-62, 48 h, read-out: Activity
[3] = test system: Hs-578T; assay: Cytotoxicity against human Hs 578T cells assessed as cell growth at 0.01 uM after 48 hrs by SRB assay relative to control; conditions: read-out: Activity
[4] = test system: HOP-62; assay: Cytotoxicity against human HOP62 cells assessed as cell growth at 0.1 uM after 48 hrs by SRB assay relative to control; conditions: HOP-62, 48 h, read-out: Activity
[5] = test system: NCI-H460; assay: Cytotoxicity against human NCI-H460 cells assessed as cell growth at 0.1 uM after 48 hrs by SRB assay relative to control; conditions: NCI-H460, 48 h, read-out: Activity
[6] = test system: COLO 205; assay: Cytotoxicity against human COLO205 cells assessed as cell growth at 1 uM after 48 hrs by SRB assay relative to control; conditions: COLO 205, 48 h, read-out: Activity
[7] = test system: HCT-116; assay: Cytotoxicity against human HCT116 cells assessed as cell growth at 1 uM after 48 hrs by SRB assay relative to control; conditions: HCT-116, 48 h, read-out: Activity
[8] = test system: HT-29; assay: Cytotoxicity against human HT-29 cells assessed as cell growth at 1 uM after 48 hrs by SRB assay relative to control; conditions: HT-29, 48 h, read-out: Activity
[9] = test system: SW-620; assay: Cytotoxicity against human SW620 cells assessed as cell growth at 1 uM after 48 hrs by SRB assay relative to control; conditions: SW-620, 48 h, read-out: Activity
[10] = test system: SK-MEL-2; assay: Cytotoxicity against human SK-MEL-2 cells assessed as cell growth at 1 uM after 48 hrs by SRB assay relative to control; conditions: SK-MEL-2, 48 h, read-out: Activity
[11] = test system: UACC-62; assay: Cytotoxicity against human UACC62 cells assessed as cell growth at 1 uM after 48 hrs by SRB assay relative to control; conditions: UACC-62, 48 h, read-out: Activity
[12] = test system: ACHN; assay: Cytotoxicity against human ACHN cells assessed as cell growth at 1 uM after 48 hrs by SRB assay relative to control; conditions: read-out: Activity
[13] = test system: RXF 393; assay: Cytotoxicity against human RXF393 cells assessed as cell growth at 1 uM after 48 hrs by SRB assay relative to control; conditions: RXF 393, 48 h, read-out: Activity
[14] = test system: BT-549; assay: Cytotoxicity against human BT549 cells assessed as cell growth at 1 uM after 48 hrs by SRB assay relative to control; conditions: BT-549, 48 h, read-out: Activity
[15] = test system: NCI-H23; assay: Cytotoxicity against human NCI-H23 cells assessed as cell growth at 100 uM after 48 hrs by SRB assay relative to control; conditions: NCI-H23, 48 h, read-out: Activity
[16] = test system: HCT-15; assay: Cytotoxicity against human HCT15 cells assessed as cell growth at 100 uM after 48 hrs by SRB assay relative to control; conditions: HCT-15, 48 h, read-out: Activity
[17] = test system: HT-29; assay: Cytotoxicity against human HT-29 cells assessed as cell growth at 100 uM after 48 hrs by SRB assay relative to control; conditions: HT-29, 48 h, read-out: Activity
[18] = test system: SF-268; assay: Cytotoxicity against human SF268 cells assessed as cell growth at 100 uM after 48 hrs by SRB assay relative to control; conditions: SF-268, 48 h, read-out: Activity
[19] = test system: SF-539; assay: Cytotoxicity against human SF539 cells assessed as cell growth at 100 uM after 48 hrs by SRB assay relative to control; conditions: SF-539, 48 h, read-out: Activity
[20] = test system: SK-MEL-2; assay: Cytotoxicity against human SK-MEL-2 cells assessed as cell growth at 100 uM after 48 hrs by SRB assay relative to control; conditions: SK-MEL-2, 48 h, read-out: Activity
[21] = test system: UACC-62; assay: Cytotoxicity against human UACC62 cells assessed as cell growth at 100 uM after 48 hrs by SRB assay relative to control; conditions: UACC-62, 48 h, read-out: Activity
[22] = test system: IGROV-1; assay: Cytotoxicity against human IGROV1 cells assessed as cell growth at 100 uM after 48 hrs by SRB assay relative to control; conditions: IGROV-1, 48 h, read-out: Activity
[23] = test system: OVCAR-8; assay: Cytotoxicity against human OVCAR8 cells assessed as cell growth at 100 uM after 48 hrs by SRB assay relative to control; conditions: OVCAR-8, 48 h, read-out: Activity
[24] = test system: NCI/ADR-RES; assay: Cytotoxicity against human NCI-ADR-RES cells assessed as cell growth at 100 uM after 48 hrs by SRB assay relative to control; conditions: read-out: Activity
[25] = test system: 786-0; assay: Cytotoxicity against human 786-O cells assessed as cell growth at 100 uM after 48 hrs by SRB assay relative to control; conditions: 786-0, 48 h, read-out: Activity
[26] = test system: DU-145; assay: Cytotoxicity against human DU145 cells assessed as cell growth at 100 uM after 48 hrs by SRB assay relative to control; conditions: DU-145, 48 h, read-out: Activity
[27] = test system: MCF7; assay: Cytotoxicity against human MCF7 cells assessed as cell growth at 100 uM after 48 hrs by SRB assay relative to control; conditions: MCF7, 48 h, read-out: Activity
[28] = test system: MDA-MB-231; assay: Cytotoxicity against human MDA-MB-231 cells assessed as cell growth at 100 uM after 48 hrs by SRB assay relative to control; conditions: MDA-MB-231, 48 h, read-out: Activity
[29] = test system: HOP-62; assay: Cytotoxicity against human HOP62 cells after 48 hrs by SRB assay; conditions: HOP-62, 48 h; for CC50: read-out: LC50 (the source's name)
[30] = test system: HCC 2998; assay: Cytotoxicity against human HCC2998 cells after 48 hrs by SRB assay; conditions: HCC 2998, 48 h
[31] = test system: SW-620; assay: Cytotoxicity against human SW620 cells after 48 hrs by SRB assay; conditions: SW-620, 48 h
[32] = test system: Malme-3M; assay: Cytotoxicity against human MALME-3M cells after 48 hrs by SRB assay
[33] = test system: MDA-MB-435; assay: Cytotoxicity against human MDA-MB-435 cells after 48 hrs by SRB assay; conditions: MDA-MB-435, 48 h
[34] = test system: NCI/ADR-RES; assay: Cytotoxicity against human NCI-ADR-RES cells after 48 hrs by SRB assay; conditions: for CC50: read-out: LC50 (the source's name)
[35] = test system: CAKI-1; assay: Cytotoxicity against human Caki1 cells after 48 hrs by SRB assay; conditions: CAKI-1, 48 h
[36] = test system: MCF7; assay: Cytotoxicity against human MCF7 cells after 48 hrs by SRB assay; conditions: MCF7, 48 h

Compound: N#CCCCCCn1cc(C2=C(c3cn(CCCCCC#N)c4ccccc34)C(=O)N(O)C2=O)c2ccccc21
- growth at 0.01 µM [1]: 99%
- growth at 0.01 µM [2]: 95%
- growth at 0.01 µM [3]: 93%
- growth at 0.1 µM [4]: 85%
- growth at 0.1 µM [5]: 104%
- growth at 1 µM [6]: 97%
- growth at 1 µM [7]: 98%
- growth at 1 µM [8]: 106%
- growth at 1 µM [9]: 91%
- growth at 1 µM [10]: 97%
- growth at 1 µM [11]: 87%
- growth at 1 µM [12]: 88%
- growth at 1 µM [13]: 98%
- growth at 1 µM [14]: 89%
- growth at 100 µM [15]: 1%
- growth at 100 µM [16]: 1%
- growth at 100 µM [17]: -33%
- growth at 100 µM [18]: 8%
- growth at 100 µM [19]: -36%
- growth at 100 µM [20]: -38%
- growth at 100 µM [21]: -55%
- growth at 100 µM [22]: -5%
- growth at 100 µM [23]: 3%
- growth at 100 µM [24]: 24%
- growth at 100 µM [25]: 6%
- growth at 100 µM [26]: 12%
- growth at 100 µM [27]: -14%
- growth at 100 µM [28]: -7%
- GI50 [29]: 7.94 µM
- TGI [29]: > 100 µM
- CC50 [29]: > 100 µM
- GI50 [30]: 14.2 µM
- LC50 [30]: > 100 µM
- TGI [30]: > 100 µM
- GI50 [31]: 4.76 µM
- LC50 [31]: > 100 µM
- TGI [31]: > 100 µM
- GI50 [32]: 12 µM
- LC50 (concentration killing 50% of cells) [32]: > 100 µM
- TGI [32]: 62.8 µM
- GI50 [33]: 2.74 µM
- LC50 [33]: > 100 µM
- TGI [33]: 8.31 µM
- GI50 [34]: 20.4 µM
- TGI [34]: > 100 µM
- CC50 [34]: > 100 µM
- GI50 [35]: 21.3 µM
- LC50 [35]: > 100 µM
- TGI [35]: > 100 µM
- GI50 [36]: 3.57 µM
- LC50 (concentration killing 50% of cells) [36]: > 100 µM
- TGI [36]: 30.7 µM

Compound: Cn1cc(C2=C(c3cn(C)c4ncccc34)C(=O)NC2=O)c2ccccc21
- growth at 0.01 µM [1]: 105%
- growth at 0.01 µM [2]: 97%
- growth at 0.01 µM [3]: 91%
- growth at 0.1 µM [4]: 103%
- growth at 0.1 µM [5]: 97%
- growth at 1 µM [6]: 83%
- growth at 1 µM [7]: 86%
- growth at 1 µM [8]: 93%
- growth at 1 µM [9]: 88%
- growth at 1 µM [10]: 111%
- growth at 1 µM [11]: 89%
- growth at 1 µM [12]: 87%
- growth at 1 µM [13]: 83%
- growth at 1 µM [14]: 85%
- growth at 100 µM [15]: -40%
- growth at 100 µM [16]: -6%
- growth at 100 µM [17]: -10%
- growth at 100 µM [18]: -12%
- growth at 100 µM [19]: -64%
- growth at 100 µM [20]: -55%
- growth at 100 µM [21]: -51%
- growth at 100 µM [22]: -10%
- growth at 100 µM [23]: -15%
- growth at 100 µM [24]: -19%
- growth at 100 µM [25]: -19%
- growth at 100 µM [26]: -28%
- growth at 100 µM [27]: -15%
- growth at 100 µM [28]: -25%
- GI50 [29]: 3.69 µM
- TGI [29]: 36.7 µM
- CC50 [29]: > 100 µM
- GI50 [30]: 4.35 µM
- TGI [30]: 28.2 µM
- GI50 [31]: 3.61 µM
- TGI [31]: 32.6 µM
- GI50 [32]: 5.47 µM
- TGI [32]: 52.4 µM
- GI50 [33]: 0.648 µM
- TGI [33]: 19.3 µM
- GI50 [34]: 5.19 µM
- TGI [34]: 44 µM
- CC50 [34]: > 100 µM
- GI50 [35]: 1.19 µM
- TGI [35]: 10.2 µM
- GI50 [36]: 2.4 µM
- TGI [36]: 29.5 µM
